Like-named read-outs stand apart in the source and are kept apart here.

Data set [1] has as its system rats. The data set can be described thus: NORT after 21 day administration, discrimination index. It is filed as in vivo, rat. The conditions noted are these: for reversal of (+)MK-801-induced memory disturbances (DI): (+)MK-801 0.1 mg/kg. The procedure: Standard laboratory food (LSM-B) and filtered water as well as environment enrichment were freely available. Animals were randomly divided into treatment groups using a computer-based random order generator. All of the experiments were performed by two observers unaware of the treatment applied between 9:00 and 14:00 on separate groups of animals.
In the NOR test (NORT), rats were randomly divided into experimental groups (n = 8/group). […] All compounds were prepared immediately before administration and were injected intraperitoneally (i.p.) in a constant volume of 2 mL/kg. […] The control group received 1% Tween 80 on the same schedule.
The test was carried out according to the method described by Ennaceur.[46] NORT was conducted in two black-painted wood boxes (60 cm × 60 cm × 60 cm). A video camera mounted above the boxes recorded all experiments. Two days before the test, the rats were placed in the empty experimental boxes for 5 min as a habituation to the test area. On the third day, the test was performed in 2 trials lasting for 3 min at one-hour intervals. First session, familiarization (T1) with two identical objects (A1 and A2) located in the opposite corners of the boxes, approximately 10 cm from the walls, and second trial, recognition (T2) with one familiar (A) and one novel object (B). Metal cans and glass jars with sand were used as the objects. The boxes were cleaned and dried after each measurement. The exploration time (E) of the objects (such as looking, licking, sniffing, or touching while sniffing) during T2 was measured, and the discrimination index (DI) was calculated according to the following formula: DI = (EB – EA)/(EA + EB).
The normality of data distribution and the homogeneity of variance were checked using the Shapiro–Wilk’s test and Levene’s test, respectively. All behavioral results are shown as the means ± SEM.

The subject of data set [2] is rats. As to conditions: acute administration, cited from earlier work.
For data set [3], the system named is SH-SY5Y cells. The data set is described as follows: ROS assay (2',7'DCFH2-DA), rotenone-induced neurotoxicity. Format: cell-based, human. As to conditions: ROT 32.5 μM alone, 3 h. The method, then: The ROS measurement was assayed by 2′,7′-dichlorofluorescin diacetate (2′, 7′DCFH2-DA, Sigma, no. D6883). The protocol was previously described in detail.[10] […] The following day, all treatments were carried out with warmed HBSS containing 25 mM HEPES (hereafter referred to as HBSS), and during the operational steps, the cells were kept at 37 °C to minimize temperature stress.

In data set [4] the test system is SH-SY5Y cells. The data set can be described thus: MTS assay 72 h, neurotoxic effect. Format: cell-based, human. The conditions noted are these: 10 and 50 μM. The procedure: SHSY5Y cells were grown in DMEM supplemented by 10% FBS, L-glutamine (2 mM), and penicillin (100u/mL)/streptomycin (100 μg/mL). The cell line was tested for mycoplasma using DAPI staining and the LookOut Mycoplasma PCR Detection Kit (MP0035, Merck). The cell line was authenticated after thawing by a morphology check, cell proliferation rate evaluation, and species verification by PCR. Bacteria contamination was excluded. […] Subsequently, cells were subjected to a CellTiter 96 AQueous One Solution Cell Proliferation Assay (Promega), according to the manufacturer’s protocol. The absorbance at 490 nm was evaluated to estimate the cell number.

The test system of data set [5] is SH-SY5Y cells. The data set is described as follows: qRT-PCR of neurodegeneration-associated genes. It is filed as cell-based, human. The conditions noted are these: 24 h.
The subject of the next data set is NRF2. The data set is described as follows: Western blot for NRF2 (total and nuclear extracts). The conditions noted are these: 10 μM, 24 h. Format: cell-based, human.
In data set [6] the test system is HT-22 cell line. The data set can be described thus: protection against Aβ1–42, cell membrane damage (ToxiLight). It is filed as cell-based, mouse. The conditions noted are these: 10 μM pretreatment 1 h, Aβ1–42 35 μM 16 h.
Description: Cells were cultured in Dulbecco’s modified Eagle’s Medium-high glucose (DMEM, GlutaMAX ThermoFisher) supplemented with 10% inactivated fetal bovine serum heat (Thermo Fisher), 100 IU/mL penicillin (Merck), and 100 μg/mL streptomycin (Merck). Cells were cultured in flasks (area 175 cm^2, Nunc) and incubated at 37 °C, 5% CO2. To measure the neuroprotective effect against Aβ1–42, cells were placed in a 96-well culture plate (5 × 10^3 cells per well, Falcon). To measure the toxicity of tested compounds, cells were placed in a 96-well culture plate (5 × 10^3 and 2 × 10^4 cells per well, Falcon).
Stock solutions were prepared at a concentration of 10 mM for the tested compounds. A minimum of 1 mg of each tested compound was weighed and dissolved in an appropriate volume of dimethyl sulfoxide (DMSO). Serial dilutions were prepared in DMSO, and then, the diluted compounds were transferred to phosphate-buffered saline (PBS), mixed, and put into a medium with adherent cells. Before the assays, eventual precipitation or opalescence was checked. […]
Then, 20 μL of adenylate kinase detection reagent was added. The luminescence was measured after 10 min of incubation with a plate reader, POLARstar Omega (BMG Labtech). The results are expressed as a percentage of the control (Aβ1–42), corresponding to the percentage of dead cells concerning the control sample.
Data set [7] relates to HT-22 cell line. The data set can be described thus: protection against Aβ1–42, ROS (CellROX). Format: cell-based, mouse. The conditions noted are these: 10 μM pretreatment 1 h, Aβ1–42 35 μM 16 h.
Description: Cells were cultured in Dulbecco’s modified Eagle’s Medium-high glucose (DMEM, GlutaMAX ThermoFisher) supplemented with 10% inactivated fetal bovine serum heat (Thermo Fisher), 100 IU/mL penicillin (Merck), and 100 μg/mL streptomycin (Merck). Cells were cultured in flasks (area 175 cm^2, Nunc) and incubated at 37 °C, 5% CO2. To measure the neuroprotective effect against Aβ1–42, cells were placed in a 96-well culture plate (5 × 10^3 cells per well, Falcon).
Stock solutions were prepared at a concentration of 10 mM for the tested compounds. A minimum of 1 mg of each tested compound was weighed and dissolved in an appropriate volume of dimethyl sulfoxide (DMSO). Serial dilutions were prepared in DMSO, and then, the diluted compounds were transferred to phosphate-buffered saline (PBS), mixed, and put into a medium with adherent cells. Before the assays, eventual precipitation or opalescence was checked.
Aβ1–42 (Merck) was initially dissolved in 1,1,1,3,3,3- hexafluor-2-propanol (Merck). […] After this time, the Aβ1–42 solution was evaporated by using nitrogen gas. Next, DMSO was added to obtain a 2 mM stock solution of β-amyloid. […]
After the end of incubation with the tested compounds, the supernatant was removed, and cells were incubated with CellROX (5 μM) in DMEM FluoroBrite (ThermoFisher) for 1 h at 37 °C. The results are expressed as a percentage of control (Aβ1–42).
Details of data set [8]: method as in PMID 38190615, PMID 35228010. The conditions noted are these: LC/MS after biotransformation in rLMs; cited from earlier work.
For a further data set, the system named is HepG2. Further details: method as in PMID 38190615, PMID 35228010. As to conditions: tested at 0.1–100 μM; cited from earlier work.
On the set-up of data set [9]: method as in PMID 38190615, PMID 35228010. As to conditions: AMES test; cited from earlier work.
Data set [10] relates to SH-SY5Y cells. The conditions noted are these: 50 μM, 27 h; cited from earlier work.
On the set-up of data set [11]: method as in PMID 38190615. The conditions noted are these: serum, cited from earlier work.
For data set [12] the following is noted: 1 mg/kg i.p., cited from earlier work.

Consider `COc1cc2c(cc1OC)C(=O)C(CC1CCN(Cc3ccccc3)CC1)C2` (stereo not drawn) [donepezil, reference compound], for which the “influence on memory compared to vehicle-treated rats (DI)” value with rats [1] (1 mg/kg/day i.p., 21 days, without (+)MK-801) is “No memory changing”. Besides, the “reversal of (+)MK-801-induced memory disturbances (DI)” value in the data set on rats [1] (1 mg/kg/day i.p., 21 days) is reported as “reverse memory disturbances”. The “minimal active chronic dose” value in the data set on rats [1] (i.p., 21 days, reversal of (+)MK-801-induced memory impairments) was determined as 1 mg/kg/day. Further, the “active dose in NOR test (significantly reversed MK-801 memory disturbances)” value with rats [2] (rat) is “g Dose of a compound that in a statistically significant manner reversed memory disturbances caused by MK-801 in the novel object recognition (NOR) test in rats;[12],[13] active dose for donepezil was 1 mg/kg. mg/kg i.p”.
`C=C(C)[C@H]1Cc2c(ccc3c2O[C@@H]2COc4cc(OC)c(OC)cc4[C@@H]2C3=O)O1` [ROT, Rotenone, reference compound]: the “ROS level (Ctr set as 100%)” value in the data set on SH-SY5Y cells [3] worked out at 176%.
As to `CN1CCN(c2nc(N)nc(C(C)(C)[Se]c3ccc4ccccc4c3)n2)CC1` [PPK-32], the “neurotoxic effect (MTS)” value in the data set on SH-SY5Y cells [4] is “no significant differences”. Also, the “expression of beta-secretase BACE1” value in the data set on SH-SY5Y cells [5] (10 μM) is listed as “negatively regulate”. For the same compound, the NRF2 transcription entry with SH-SY5Y cells [5] (10 and 50 μM) is listed as “neither WA-22 nor PPK-32 were able to stimulate its transcription”. For the same compound, the “expression of NQO1, SOD1, and HO1” value with SH-SY5Y cells [5] (10 and 50 μM) is “induce the expression”. Further, the “expression of pro-inflammatory gene NFkB” value with SH-SY5Y cells [5] (10 and 50 μM) is on record as “neither WA-22 nor PPK-32 were able to downregulate”. In the data set on NRF2 (GAPDH loading control), the “NRF2 protein amount (total extract)” value is reported as “protein amount was not modulated”. Also, the “NRF2 translocation from cytoplasm to nucleus” value in the data set on NRF2 (nuclear extracts, H3 loading control) is listed as “distinctly stronger than that upon WA-22 treatment”. Further, in the data set with HT-22 cell line [6], the “protection of cell integrity against membrane destruction caused by Aβ1–42” value was “slightly more potent than the thioether WA-22”. In the data set on HT-22 cell line [7], the “decrease of ROS induced by Aβ” value was “displayed the ability to decrease ROS”. Besides, the “reversal of (+)MK-801-induced memory disturbances (DI)” value with rats [1] (1 mg/kg/day i.p., 21 days) was “inactive”; in the data set with rats [1] (3 mg/kg/day i.p., 21 days) it was “significantly reversed”. The “metabolic stability, % of remaining structure” value in data set [8] was 37%. In the data set with HepG2, the “hepatotoxic (statistically significant HepG2 viability decrease)” value was over 100 µM. In addition, the mutagenic entry in data set [9] is reported as “no”. Moreover, the “reduction of cell viability compared to Ctr” value with SH-SY5Y cells [10] is listed as 45%. For the same compound, the “AUC0–∞” value in data set [11] (1 mg/kg i.p.) was 1833.92 ng·min/mL. Besides, the highest concentration (Cmax) is 34.9 ng/mL in [11] (1.0 mg/kg i.p.) and 54.9 ng/g in data set [12] (brain, highest value 30 min after administration). In addition, in the data set on rats [2] (male Wistar rats, (+)MK-801), the “memory-protective action at doses as low as” value is given as 0.3 mg/kg. Also, the “detected in rat organs up to (time after administration)” value in data set [12] is reported as “up to 120 min”. In addition, the t1/2λz in data set [12] (liver) was 1.42 h.
`C[C@]12N[C@H](Cc3ccccc31)c1ccccc12` [(+)MK-801, reference compound]: the “effect on memory functions (DI)” value in the data set on rats [1] (0.1 mg/kg i.p. once, 30 min before the test) is recorded as “induced deficits in memory functions”.

The values are drawn from publication PMC11926880, “Procognitive Potential of Neuroprotective Triazine 5-HT6 Receptor Antagonists Tested on Chronic Activity In Vivo in Rats: Computer-Aided Insight into the Role of Chalcogen-Differences on the Pharmacological Profile” (ACS Chemical Neuroscience, 2025).
